Tests used:
EBC-1 = experiment: In vitro activity in EBC-1 cell line (CTG 120h), Example 12; type: cell-based; conditions: Homo sapiens, EBC-1, 120 h, EBC1, CTG 120 h
Method: (§1) EBC-1 and SNU-5 cell lines were cultured in the media described above at 37° C. in a humidified atmosphere containing 5% CO2. The cells were seeded in 96 well clear bottom plates (96 well clear-bottom, white, Corning reference 3903) and exposed to the mAbs or ADCs for 120h (serially diluted; 9 concentrations each, triplicates). Effects of mAbs or ADCs on cell viability were assessed after 5 days of incubation at 37° C./5% CO2 by quantification of cellular ATP levels using CellTiter-Glo reagent (Promega Ref: G7571) at 75 μL reagent/well. All the conditions were tested in triplicates. Luminescence was quantified on a multipurpose plate reader. IC50s were calculated using standard four-parametric curve fitting. IC50 is defined as the compound concentration at which the CTG signal is reduced to 50% of that measured for the control. Two independent experiments were performed (N1 and N2).
(§2) Plating Conditions: EBC-1: 75 μL/well of 60000 cells/mL for 120h in 96-well plate SNU-5: 75 μL/well of 60000 cells/mL for 120h in 96-well plate H1650 (ATOC): 75 μL/well of 125000 cells/mL for 120h in 96 microwell round bottom plates

H1650 cells [1] = experiment: In vitro activity in H1650 cell line (3D, CTG 120h), Example 12; type: cell-based; conditions: Homo sapiens, NCI-H1650, 120 h, H1650 3D
Method: (§3) H1650 cells were cultivated in RPMI supplemented with 10% heat inactivated fetal bovine serum, penicillin (100 IU/ml), streptomycin (100 μg/ml) and L-glutamine (2 mM). Cells were cultured at 37° C. in a humidified atmosphere containing 5% CO2. Cells were seeded in 96 microwell round bottom plates (96 microwell low attachment plates, Costar reference 7007; 75 μL/well of 125000 cells/mL) and exposed to the mAbs or ADCs for 120h (serially diluted; 9 concentrations each, duplicates). Effects of mAbs or ADCs on cell viability were assessed after 5 days of incubation at 37° C./5% CO2 by quantification of cellular ATP levels using CellTiter-Glo reagent (Promega Ref: G7571) at 75 μL reagent/well. All the conditions were tested in duplicates. Luminescence was quantified on a multipurpose plate reader. IC50s were calculated using standard four-parametric curve fitting. IC50 is defined as the compound concentration at which the CTG signal is reduced to 50% of that measured for the control. Two independent experiments were performed (N1 and N2).
as §2

H1650 cells [2] = experiment: In vitro activity in H1650 cell line (3D, CTG 120h), Example 6; type: cell-based; conditions: Homo sapiens, NCI-H1650, 120 h, H1650 3D
Method: as §3, with “CellTiterGlo” for “CellTiter-Glo reagent (Promega Ref: G7571)”, “N2). IC50 data of each experiment and the arithmetic mean is shown in Table 14 for all the antibodies and ADCs tested. NT=not tested; ND=not determined.” for “N2).”

SNU-5 = experiment: In vitro activity in SNU-5 cell line (CTG 120h), Example 6; type: cell-based; conditions: Homo sapiens, SNU-5, 120 h, SNU-5, CTG 120 h
Method: as §1, with “Cell” for “EBC-1 and SNU-5 cell”, “Cells” for “The cells”, “N2). IC50 data of each experiment and the arithmetic mean is shown in Table 14 for all the antibodies and ADCs tested.” for “N2).”

[3] = system: pancreatic cancer cell lines; experiment: Pancreatic cancer cell line panel of Example 10 (CTG 120h); type: cell-based; conditions: pancreatic cancer cell lines of Table 16, single agents
Method: Cell lines were cultured in the media described above at 37° C. in a humidified atmosphere containing 5% CO2. […] When in 1:1 combination, both the combining partner (Paclitaxel, Trametinib or Gemcitabine) and the mAb or ADC were serially diluted (9 concentrations each, triplicates). Effect on cell viability was assessed after 5 days of incubation at 37° C./5% CO2 by quantification of cellular ATP levels using CellTiter-Glo reagent (Promega Ref: G7571) at 75 μL reagent/well. All the conditions were tested in triplicates. Luminescence was quantified on a multipurpose plate reader. IC50s were calculated using standard four-parametric curve fitting. […] Two independent experiments were performed (N1 and N2).

H1650 xenografts = experiment: In vivo efficacy alone or with paclitaxel in Met non amplified NCI-H1650 lung adenocarcinoma human cell model, Example 15; set-up: species or system SCID mice; conditions: paclitaxel 12.5 mg/kg IV at day 1, 8 and 15, single agent
Method: Below are the procedures for determining the in vivo therapeutic effect of a Bcl-xL ADC targeting the Met protein as a single agent or in combination with paclitaxel. Their activities were compared to the corresponding naked anti-Met mAb or Ab G-L42C-P25 (non-targeting ADC) formulated in Phosphate-Buffered Saline (PBS) in a Met non amplified NCI-H1650 lung adenocarcinoma human cell line after intravenous (IV) administration.
NCI-H1650 cells, obtained from ATCC, were cultured in RPMI supplemented with 10% SBS, 1% Penicillin-Streptomycin and 1% HEPES. Cells were resuspended in 50% Matrigel® (Corning®) and 0.1 ml containing 10×10^6 cells were subcutaneously inoculated into the right flank of female SCID mice, provided by Charles River.
Mice body weight was monitored 3 times a week and tumor size measured using electronic calipers. Tumor volume was estimated by measuring the minimum and maximum tumor diameters using the formula: (minimum diameter)2(maximum diameter)/2.
With DTV (Delta Tumor Volume) at Dx, calculated being TV at Dx−TV at Randomization.
Mice were sacrificed at the first measurement for which tumor volume exceeded 2000 mm3 or at the first signs of animal health deterioration. […] SCID mice were maintained according to institutional guidelines.

lung cancer cell lines = experiment: Lung cancer cell line panel of Example 7, statements in text (CTG 120h); type: cell-based; conditions: lung cancer cell lines of Table 15, single agents
Method: Cell lines were cultured in the media described above at 37° C. in a humidified atmosphere containing 5% CO2. Cells were seeded in 96 well clear bottom plates (96 well clear-bottom, white, Corning reference 3903) and exposed to the mAbs, mAbs mixture, ADCs or ADCs mixture as single agents or in 1:1 combination with Paclitaxel. When in 1:1 combination, both the combining partner (Paclitaxel) and the mAb, mAb mixture, ADC or ADC mixture were serially diluted (9 concentrations each, triplicates). Effect on cell viability was assessed after 5 days of incubation at 37° C./5% CO2 by quantification of cellular ATP levels using CellTiter-Glo reagent (Promega Ref: G7571) at 75 μL reagent/well. All the conditions were tested in triplicates. Luminescence was quantified on a multipurpose plate reader. IC50s were calculated using standard four-parametric curve fitting. IC50 is defined as the compound concentration at which the CTG signal is reduced to 50% of that measured for the control. Two independent experiments were performed (N1 and N2).

Row | Compound | IC50 (EBC-1; Mean) [nM] | IC50 (EBC-1; N1) [nM] | IC50 (EBC-1; N2) [nM] | IC50 (H1650 cells [1]; N1) [nM] | IC50 (H1650 cells [1]; N2) [nM] | IC50 (H1650 cells [1]; mean) [nM] | IC50 (H1650 cells [2]; mean) [nM] | IC50 (H1650 cells [2]; n = 1) [nM] | IC50 (H1650 cells [2]; n = 2) [nM] | IC50 (SNU-5; mean) [nM] | IC50 (SNU-5; n = 1) [nM] | IC50 (SNU-5; n = 2) [nM] | effect on the viability [3] | TGI % (d 18) (H1650 xenografts) [%] | effect on the viability (lung cancer cell lines)
1 | Cc1c(Nc2nc3ccccc3s2)nnc2c1CCCN2c1ccc(-c2cnn(C[C@]34C[C@]5(C)C[C@](C)(C3)C[C@@](OCCNCCCO)(C5)C4)c2C)c(C(=O)O)n1 [P25, 6-[3-(1,3-benzothiazol-2-ylamino)-4-methyl-6,7-dihydro-5H-pyrido[2,3-c]pyridazin-8-yl]-3-[1-[[3-[2-(3-hydroxypropylamino)ethoxy]-5,7-dimethyl-1-adamantyl]methyl]-5-methyl-pyrazol-4-yl]pyridine-2-carboxylic acid] | 12.6 | 12.8 | 12.4 | 8.28 | 5.9 | 7.09 | 1.57 | 1.47 | 1.66 | 10700 | 10600 | 10800 | – | – | –
2 | CC(=O)O[C@H]1C(=O)[C@@]2(C)[C@H]([C@H](OC(=O)c3ccccc3)[C@]3(O)C[C@H](OC(=O)[C@H](O)[C@@H](NC(=O)c4ccccc4)c4ccccc4)C(C)=C1C3(C)C)[C@]1(OC(C)=O)CO[C@@H]1C[C@@H]2O [Paclitaxel, paclitaxel] | – | – | – | – | – | – | – | – | – | – | – | – | induced dose dependent decrease in cell viability with measurable IC50 for most of the cell lines | −14.4 | induced dose dependent decrease in cell viability (with measurable IC50) in all cell lines except NCI-H1838

Reference: patent US20250339547A1, “MET BCL-XL INHIBITOR ANTIBODY-DRUG CONJUGATES AND METHODS OF USE THEREOF” (Novartis AG, priority 2022, published 2025)
